Laboratory results as given in PubChem BioAssay (NCI).
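In this assay, cells in 96-well plates receive the compound at five concentrations for 48 hours. Endpoints are linearly interpolated between the surrounding concentrations. GI50 = concentration required for 50% inhibition of growth. The concentration for full growth arrest is given as TGI.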

Tests used:
Assay in all cases: NCI tumour cell line growth inhibition, 48 h
BT-549 breast = test system: BT-549 breast
CCRF-CEM leukemia = test system: CCRF-CEM leukemia
DU-145 prostate = test system: DU-145 prostate
HL-60(TB) leukemia = test system: HL-60(TB) leukemia
RPMI-8226 leukemia = test system: RPMI-8226 leukemia
SK-MEL-2 melanoma = test system: SK-MEL-2 melanoma
786-0 renal = test system: 786-0 renal
ACHN renal = test system: ACHN renal
CAKI-1 renal = test system: CAKI-1 renal
EKVX NSCLC = test system: EKVX NSCLC
HCC-2998 colon = test system: HCC-2998 colon
HCT-15 colon = test system: HCT-15 colon
HOP-92 NSCLC = test system: HOP-92 NSCLC
HS 578T breast = test system: HS 578T breast
KM12 colon = test system: KM12 colon
LOX IMVI melanoma = test system: LOX IMVI melanoma
M14 melanoma = test system: M14 melanoma
MALME-3M melanoma = test system: MALME-3M melanoma
MCF7 breast = test system: MCF7 breast
MDA-MB-231 breast = test system: MDA-MB-231 breast
MDA-MB-435 = test system: MDA-MB-435
MOLT-4 leukemia = test system: MOLT-4 leukemia
NCI-H23 lung = test system: NCI-H23 lung
NCI-H460 lung = test system: NCI-H460 lung
NCI-H522 lung = test system: NCI-H522 lung
OVCAR-3 ovarian = test system: OVCAR-3 ovarian
OVCAR-4 ovarian = test system: OVCAR-4 ovarian
OVCAR-5 ovarian = test system: OVCAR-5 ovarian
RXF 393 renal = test system: RXF 393 renal
SF-268 CNS = test system: SF-268 CNS
SF-295 CNS = test system: SF-295 CNS
SF-539 CNS = test system: SF-539 CNS
SK-MEL-28 melanoma = test system: SK-MEL-28 melanoma
SK-MEL-5 melanoma = test system: SK-MEL-5 melanoma
SK-OV-3 ovarian = test system: SK-OV-3 ovarian
SNB-19 CNS = test system: SNB-19 CNS
SNB-75 CNS = test system: SNB-75 CNS
SR leukemia = test system: SR leukemia
SW-620 colon = test system: SW-620 colon
T-47D breast = test system: T-47D breast
UACC-62 melanoma = test system: UACC-62 melanoma
UO-31 renal = test system: UO-31 renal
A498 renal = test system: A498 renal
A549 NSCLC = test system: A549 NSCLC
COLO 205 colon = test system: COLO 205 colon
HCT-116 colon = test system: HCT-116 colon
HOP-62 NSCLC = test system: HOP-62 NSCLC
HT29 colon = test system: HT29 colon
K-562 leukemia = test system: K-562 leukemia
NCI-H226 lung = test system: NCI-H226 lung
NCI/ADR-RES ovarian = test system: NCI/ADR-RES ovarian
OVCAR-8 ovarian = test system: OVCAR-8 ovarian
PC-3 prostate = test system: PC-3 prostate
SN12C renal = test system: SN12C renal
TK-10 renal = test system: TK-10 renal
U251 CNS = test system: U251 CNS
UACC-257 melanoma = test system: UACC-257 melanoma

In the case of `N=C(N)c1ccc(-c2ccc(-c3ccc(Cl)c(Cl)c3)s2)cc1`, the GI50 (BT-549 breast) is reported as 6390 nM, the TGI (BT-549 breast) is reported as 50000 nM and the GI50 (CCRF-CEM leukemia) is reported as 1540 nM. It also gave a TGI (CCRF-CEM leukemia) of 4260 nM, a GI50 (DU-145 prostate) of 1750 nM and a TGI (DU-145 prostate) of 3130 nM. The GI50 (HL-60(TB) leukemia) was 1700 nM, the TGI (HL-60(TB) leukemia) was 4230 nM and the GI50 (RPMI-8226 leukemia) was 1890 nM. The TGI (RPMI-8226 leukemia) was 4370 nM, the GI50 (SK-MEL-2 melanoma) was 2510 nM and the TGI (SK-MEL-2 melanoma) was 5800 nM.
In the case of `COc1ccc(Nc2nc(Nc3cc(C)[nH]n3)c3cc(OC)c(OC)cc3n2)cc1`, the GI50 (786-0 renal) is reported as 1490 nM, the TGI (786-0 renal) is reported as 3020 nM and the GI50 (ACHN renal) is reported as 1450 nM. It also gave a TGI (ACHN renal) of 2780 nM, a GI50 (BT-549 breast) of 1400 nM and a TGI (BT-549 breast) of 2900 nM. The GI50 (CAKI-1 renal) was 1590 nM, the TGI (CAKI-1 renal) was 2950 nM and the GI50 (DU-145 prostate) was 1030 nM. It also gave a TGI (DU-145 prostate) of 2240 nM, a GI50 (EKVX NSCLC) of 1480 nM and a TGI (EKVX NSCLC) of 2940 nM. For the same molecule, the GI50 (HCC-2998 colon) was 1320 nM, the TGI (HCC-2998 colon) was 2900 nM and the GI50 (HCT-15 colon) was 685 nM. It also gave a TGI (HCT-15 colon) of 2450 nM, a GI50 (HOP-92 NSCLC) of 1290 nM and a TGI (HOP-92 NSCLC) of 2930 nM. For the same molecule, the GI50 (HS 578T breast) was 1250 nM, the TGI (HS 578T breast) was 3150 nM and the GI50 (KM12 colon) was 610 nM. The TGI (KM12 colon) was 2090 nM, the GI50 (LOX IMVI melanoma) was 441 nM and the TGI (LOX IMVI melanoma) was 1700 nM. The GI50 (M14 melanoma) was 1310 nM, the TGI (M14 melanoma) was 2890 nM and the GI50 (MALME-3M melanoma) was 1650 nM. It also gave a TGI (MALME-3M melanoma) of 3190 nM, a GI50 (MCF7 breast) of 457 nM and a TGI (MCF7 breast) of 2050 nM. The GI50 (MDA-MB-231 breast) was 1350 nM, the TGI (MDA-MB-231 breast) was 2900 nM and the GI50 (MDA-MB-435) was 1230 nM. The TGI (MDA-MB-435) was 2580 nM, the GI50 (MOLT-4 leukemia) was 389 nM and the TGI (MOLT-4 leukemia) was 2580 nM. The GI50 (NCI-H23 lung) was 1160 nM, the TGI (NCI-H23 lung) was 2820 nM and the GI50 (NCI-H460 lung) was 569 nM. The TGI (NCI-H460 lung) was 2090 nM, the GI50 (NCI-H522 lung) was 1440 nM and the TGI (NCI-H522 lung) was 4480 nM. For the same molecule, the GI50 (OVCAR-3 ovarian) was 1010 nM, the TGI (OVCAR-3 ovarian) was 2260 nM and the GI50 (OVCAR-4 ovarian) was 789 nM. For the same molecule, the TGI (OVCAR-4 ovarian) was 2220 nM, the GI50 (OVCAR-5 ovarian) was 2000 nM and the TGI (OVCAR-5 ovarian) was 3740 nM. The GI50 (RPMI-8226 leukemia) was 278 nM, the TGI (RPMI-8226 leukemia) was 782 nM and the GI50 (RXF 393 renal) was 1490 nM. It also gave a TGI (RXF 393 renal) of 2830 nM, a GI50 (SF-268 CNS) of 1350 nM and a TGI (SF-268 CNS) of 2920 nM. It also gave a GI50 (SF-295 CNS) of 1330 nM, a TGI (SF-295 CNS) of 2680 nM and a GI50 (SF-539 CNS) of 1100 nM. For the same molecule, the TGI (SF-539 CNS) was 2390 nM, the GI50 (SK-MEL-2 melanoma) was 1770 nM and the TGI (SK-MEL-2 melanoma) was 3560 nM. It also gave a GI50 (SK-MEL-28 melanoma) of 1700 nM, a TGI (SK-MEL-28 melanoma) of 3260 nM and a GI50 (SK-MEL-5 melanoma) of 1370 nM. For the same molecule, the TGI (SK-MEL-5 melanoma) was 3050 nM, the GI50 (SK-OV-3 ovarian) was 1830 nM and the TGI (SK-OV-3 ovarian) was 3330 nM. It also gave a GI50 (SNB-19 CNS) of 1560 nM, a TGI (SNB-19 CNS) of 3180 nM and a GI50 (SNB-75 CNS) of 1660 nM. For the same molecule, the TGI (SNB-75 CNS) was 3150 nM, the GI50 (SR leukemia) was 386 nM and the TGI (SR leukemia) was greater than 100000 nM. The GI50 (SW-620 colon) was 314 nM, the TGI (SW-620 colon) was 1020 nM and the GI50 (T-47D breast) was 1070 nM. The TGI (T-47D breast) was 3480 nM, the GI50 (UACC-62 melanoma) was 1710 nM and the TGI (UACC-62 melanoma) was 3390 nM. The GI50 (UO-31 renal) was 1450 nM and the TGI (UO-31 renal) was 2930 nM.
`O=C(c1cccs1)c1nccc2c1cnc1ccccc12` showed a TGI (786-0 renal) greater than 100000 nM, a TGI (A498 renal) greater than 100000 nM and a TGI (A549 NSCLC) greater than 100000 nM. For the same molecule, the TGI (ACHN renal) was greater than 100000 nM, the TGI (CAKI-1 renal) was greater than 100000 nM and the TGI (CCRF-CEM leukemia) was greater than 100000 nM. The TGI (COLO 205 colon) was greater than 100000 nM, the TGI (DU-145 prostate) was greater than 100000 nM and the TGI (EKVX NSCLC) was greater than 100000 nM. It also gave a TGI (HCC-2998 colon) greater than 100000 nM, a TGI (HCT-116 colon) greater than 100000 nM and a TGI (HCT-15 colon) greater than 100000 nM. The TGI (HL-60(TB) leukemia) was greater than 100000 nM, the TGI (HOP-62 NSCLC) was greater than 100000 nM and the TGI (HOP-92 NSCLC) was greater than 100000 nM. The TGI (HS 578T breast) was greater than 100000 nM, the TGI (HT29 colon) was greater than 100000 nM and the TGI (K-562 leukemia) was greater than 100000 nM. The TGI (KM12 colon) was greater than 100000 nM, the TGI (LOX IMVI melanoma) was greater than 100000 nM and the TGI (M14 melanoma) was greater than 100000 nM. The TGI (MALME-3M melanoma) was greater than 100000 nM, the TGI (MCF7 breast) was 72500 nM and the TGI (MDA-MB-231 breast) was greater than 100000 nM. It also gave a TGI (MDA-MB-435) greater than 100000 nM, a TGI (MOLT-4 leukemia) greater than 100000 nM and a TGI (NCI-H226 lung) greater than 100000 nM. For the same molecule, the TGI (NCI-H23 lung) was greater than 100000 nM, the TGI (NCI-H460 lung) was greater than 100000 nM and the TGI (NCI/ADR-RES ovarian) was greater than 100000 nM. For the same molecule, the TGI (OVCAR-3 ovarian) was greater than 100000 nM, the TGI (OVCAR-4 ovarian) was greater than 100000 nM and the TGI (OVCAR-5 ovarian) was greater than 100000 nM. For the same molecule, the TGI (OVCAR-8 ovarian) was greater than 100000 nM, the TGI (PC-3 prostate) was greater than 100000 nM and the TGI (RPMI-8226 leukemia) was greater than 100000 nM. The TGI (RXF 393 renal) was 21200 nM, the TGI (SF-268 CNS) was 98600 nM and the TGI (SF-295 CNS) was greater than 100000 nM. It also gave a TGI (SF-539 CNS) greater than 100000 nM, a TGI (SK-MEL-2 melanoma) greater than 100000 nM and a TGI (SK-MEL-28 melanoma) greater than 100000 nM. For the same molecule, the TGI (SK-MEL-5 melanoma) was greater than 100000 nM, the TGI (SK-OV-3 ovarian) was greater than 100000 nM and the TGI (SN12C renal) was greater than 100000 nM. For the same molecule, the TGI (SNB-19 CNS) was greater than 100000 nM, the TGI (SNB-75 CNS) was greater than 100000 nM and the TGI (SR leukemia) was greater than 100000 nM. It also gave a TGI (SW-620 colon) greater than 100000 nM, a TGI (T-47D breast) greater than 100000 nM and a TGI (TK-10 renal) greater than 100000 nM. For the same molecule, the TGI (U251 CNS) was greater than 100000 nM, the TGI (UACC-257 melanoma) was greater than 100000 nM and the TGI (UACC-62 melanoma) was greater than 100000 nM. The TGI (UO-31 renal) was greater than 100000 nM.
With `CCCCc1n(Cc2ccc3ccccc3c2)c2ccccc2[n+]1Cc1ccc2ccccc2c1` the GI50 (ACHN renal) was 1400 nM, the TGI (ACHN renal) was 2820 nM and the GI50 (OVCAR-5 ovarian) was 521 nM. For the same molecule, the TGI (OVCAR-5 ovarian) was 1900 nM, the GI50 (UACC-257 melanoma) was 925 nM and the TGI (UACC-257 melanoma) was 2230 nM.
